Data published in ChEMBL document CHEMBL1201862, “PubChem BioAssay data set” (2004).
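Briefly, cells in 96-well plates were exposed to five compound concentrations for 48 h, and endpoints were estimated by linear interpolation. GI50 = concentration required for 50% inhibition of growth.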 Active and inactive are the calls of the source. Cut-off read from the data, not from the text of the source: active = GI50 up to about 1.1 µM and inactive = higher.

How the values were obtained:
Assay in all cases: inhibition of tumour cell growth, NCI panel, 48 h
[1] = tested on: RXF 393
[2] = tested on: HCC 2998
[3] = tested on: SF-295
[4] = tested on: NCI-H460
[5] = tested on: HOP-92
[6] = tested on: UO-31
[7] = tested on: NCI-H522
[8] = tested on: SK-MEL-2
[9] = tested on: K562
[10] = tested on: SNB-75
[11] = tested on: OVCAR-3
[12] = tested on: Malme-3M
[13] = tested on: A549
[14] = tested on: RPMI-8226
[15] = tested on: SK-MEL-5
[16] = tested on: A498
[17] = tested on: KM12
[18] = tested on: DLD-1
[19] = tested on: TK-10

C/C=C/C1=CC(=O)C(O)C1O (configuration not stated) was tested, and the GI50 [1] was 15.1 µM (inactive), the GI50 [2] was 27.5 µM (inactive) and the GI50 [3] was 44.7 µM (inactive). The GI50 [4] was 19.7 µM (inactive), the GI50 [5] was 27.2 µM (inactive) and the GI50 [6] was 32.2 µM (inactive). For the same molecule, the GI50 [7] was 5.86 µM (inactive), the GI50 [8] was 36.5 µM (inactive) and the GI50 [9] was 30.6 µM (inactive). For the same molecule, the GI50 [10] was 23.6 µM (inactive), the GI50 [11] was 24.5 µM (inactive) and the GI50 [12] was 27.1 µM (inactive). The GI50 [13] was 29 µM (inactive), the GI50 [14] was 22.1 µM (inactive) and the GI50 [15] was 28.4 µM (inactive). The GI50 [16] was 8.28 µM (inactive), the GI50 [17] was 15.3 µM (inactive) and the GI50 [18] was 30.4 µM (inactive).
In the case of Cc1cccc(C(C)C)c1NC(=O)/C(Cc1c([N+](=O)[O-])cccc1[N+](=O)[O-])=N/NC(=O)CC#N, the GI50 [1] is reported as > 100 µM (inactive), the GI50 [2] is reported as > 100 µM (inactive) and the GI50 [3] is reported as > 100 µM (inactive). For the same molecule, the GI50 [19] was 80.9 µM (inactive), the GI50 [4] was > 100 µM (inactive) and the GI50 [5] was 41.6 µM (inactive). For the same molecule, the GI50 [6] was > 100 µM (inactive), the GI50 [7] was > 100 µM (inactive) and the GI50 [8] was > 100 µM (inactive). For the same molecule, the GI50 [9] was > 100 µM (inactive), the GI50 [10] was > 100 µM (inactive) and the GI50 [11] was > 100 µM (inactive). The GI50 [12] was > 100 µM (inactive), the GI50 [13] was > 100 µM (inactive) and the GI50 [15] was > 100 µM (inactive). For the same molecule, the GI50 [16] was 44.4 µM (inactive), the GI50 [17] was > 100 µM (inactive) and the GI50 [18] was > 100 µM (inactive).
For O=C(c1nc2ccc(Cl)cc2nc1O)C(O)c1ccccc1 (configuration not stated), the GI50 [2] was > 100 µM (inactive), the GI50 [3] was > 100 µM (inactive) and the GI50 [19] was > 100 µM (inactive). The GI50 [4] was > 100 µM (inactive), the GI50 [5] was 18.2 µM (inactive) and the GI50 [6] was > 100 µM (inactive). The GI50 [7] was 10.9 µM (inactive), the GI50 [8] was > 100 µM (inactive) and the GI50 [9] was 21.8 µM (inactive). For the same molecule, the GI50 [11] was 32.8 µM (inactive), the GI50 [12] was > 100 µM (inactive) and the GI50 [13] was 35.2 µM (inactive). For the same molecule, the GI50 [14] was 3.85 µM (inactive), the GI50 [15] was > 100 µM (inactive) and the GI50 [16] was 14.8 µM (inactive). For the same molecule, the GI50 [17] was 51.2 µM (inactive) and the GI50 [18] was > 100 µM (inactive).
For N#C/C(=C1/Sc2c(nc[nH]c2=O)N1c1ccccc1)c1nc2ccccc2[nH]1, the GI50 [2] was > 100 µM (inactive), the GI50 [3] was > 100 µM (inactive) and the GI50 [19] was > 100 µM (inactive). For the same molecule, the GI50 [4] was > 100 µM (inactive), the GI50 [5] was > 100 µM (inactive) and the GI50 [6] was > 100 µM (inactive). The GI50 [7] was > 100 µM (inactive), the GI50 [8] was > 100 µM (inactive) and the GI50 [9] was > 100 µM (inactive). The GI50 [10] was 26 µM (inactive), the GI50 [11] was > 100 µM (inactive) and the GI50 [12] was > 100 µM (inactive). For the same molecule, the GI50 [13] was > 100 µM (inactive), the GI50 [14] was > 100 µM (inactive) and the GI50 [15] was > 100 µM (inactive). The GI50 [16] was > 100 µM (inactive), the GI50 [17] was > 100 µM (inactive) and the GI50 [18] was > 100 µM (inactive).
In the case of Cc1csc(/N=C(/NCCN2CCOCC2)Nc2nc(C)cs2)n1, the GI50 [1] is reported as > 100 µM (inactive), the GI50 [2] is reported as > 100 µM (inactive) and the GI50 [3] is reported as > 80.2 µM (inactive). For the same molecule, the GI50 [4] was > 100 µM (inactive), the GI50 [5] was > 88.9 µM (inactive) and the GI50 [6] was > 100 µM (inactive). For the same molecule, the GI50 [7] was > 100 µM (inactive), the GI50 [8] was > 100 µM (inactive) and the GI50 [9] was > 100 µM (inactive). For the same molecule, the GI50 [10] was > 63.2 µM (inactive), the GI50 [11] was > 100 µM (inactive) and the GI50 [12] was > 100 µM (inactive). For the same molecule, the GI50 [13] was > 100 µM (inactive), the GI50 [14] was > 100 µM (inactive) and the GI50 [15] was > 100 µM (inactive). The GI50 [16] was > 57.9 µM (inactive), the GI50 [17] was > 100 µM (inactive) and the GI50 [18] was > 100 µM (inactive).
In the case of c1ccc2c(c1)CCCC/C2=N/OCC1CO1 (configuration not stated), the GI50 [1] is reported as 53.6 µM (inactive), the GI50 [2] is reported as > 100 µM (inactive) and the GI50 [3] is reported as 58.7 µM (inactive). The GI50 [19] was > 100 µM (inactive), the GI50 [4] was 80.7 µM (inactive) and the GI50 [5] was 22.3 µM (inactive). The GI50 [6] was < 0.01 µM (active), the GI50 [8] was > 100 µM (inactive) and the GI50 [9] was 41.2 µM (inactive). The GI50 [10] was 54.5 µM (inactive), the GI50 [12] was 67.6 µM (inactive) and the GI50 [13] was 56.4 µM (inactive). The GI50 [14] was 30.3 µM (inactive), the GI50 [15] was 35.5 µM (inactive) and the GI50 [16] was > 100 µM (inactive). For the same molecule, the GI50 [17] was 35.9 µM (inactive) and the GI50 [18] was > 100 µM (inactive).
For COC(=O)C(C/C=C(\C)c1ccc(Cl)cc1)C(C)=O (configuration not stated), the GI50 [1] was 26.7 µM (inactive), the GI50 [2] was 75.9 µM (inactive) and the GI50 [3] was 39.9 µM (inactive). For the same molecule, the GI50 [4] was > 100 µM (inactive), the GI50 [5] was 19.5 µM (inactive) and the GI50 [6] was 22.9 µM (inactive). For the same molecule, the GI50 [7] was 22.5 µM (inactive), the GI50 [8] was 5.53 µM (inactive) and the GI50 [9] was 36.4 µM (inactive). For the same molecule, the GI50 [10] was 29.2 µM (inactive), the GI50 [11] was 32.4 µM (inactive) and the GI50 [12] was 40.3 µM (inactive). The GI50 [13] was 31 µM (inactive), the GI50 [14] was 24.2 µM (inactive) and the GI50 [15] was 21.3 µM (inactive). For the same molecule, the GI50 [16] was 34.4 µM (inactive), the GI50 [17] was 37 µM (inactive) and the GI50 [18] was 57.1 µM (inactive).
In the case of C=CC(C)C1(CCCOCc2ccccc2)C(=S)N2CCC3(CC24CCCC14)OCCO3 (configuration not stated), the GI50 [1] is reported as 6.46 µM (inactive), the GI50 [2] is reported as 56.1 µM (inactive) and the GI50 [3] is reported as 53.2 µM (inactive). The GI50 [19] was 97.3 µM (inactive), the GI50 [4] was 26.3 µM (inactive) and the GI50 [6] was 28.8 µM (inactive). The GI50 [7] was 7.31 µM (inactive), the GI50 [8] was 12.2 µM (inactive) and the GI50 [9] was 4.84 µM (inactive). For the same molecule, the GI50 [10] was 0.0506 µM (active), the GI50 [11] was 6.76 µM (inactive) and the GI50 [12] was 47.5 µM (inactive). For the same molecule, the GI50 [13] was 16 µM (inactive), the GI50 [14] was 2.72 µM (inactive) and the GI50 [15] was 5.61 µM (inactive). For the same molecule, the GI50 [16] was 5.01 µM (inactive), the GI50 [17] was 12.9 µM (inactive) and the GI50 [18] was 54.6 µM (inactive).
